Measurements published in ChEMBL document CHEMBL1155850, “Synthesis and biological evaluation of a focused library of beauveriolides” (Bioorg Med Chem Lett, 2008).

Legend:
[1] = target: T1, Sterol O-acyltransferase 1 (Mus musculus) (UniProt Q61263); assay: Inhibition of ACAT in mouse liver microsomes at 20 uM; details: Microsome
T1 sequence (whole entry): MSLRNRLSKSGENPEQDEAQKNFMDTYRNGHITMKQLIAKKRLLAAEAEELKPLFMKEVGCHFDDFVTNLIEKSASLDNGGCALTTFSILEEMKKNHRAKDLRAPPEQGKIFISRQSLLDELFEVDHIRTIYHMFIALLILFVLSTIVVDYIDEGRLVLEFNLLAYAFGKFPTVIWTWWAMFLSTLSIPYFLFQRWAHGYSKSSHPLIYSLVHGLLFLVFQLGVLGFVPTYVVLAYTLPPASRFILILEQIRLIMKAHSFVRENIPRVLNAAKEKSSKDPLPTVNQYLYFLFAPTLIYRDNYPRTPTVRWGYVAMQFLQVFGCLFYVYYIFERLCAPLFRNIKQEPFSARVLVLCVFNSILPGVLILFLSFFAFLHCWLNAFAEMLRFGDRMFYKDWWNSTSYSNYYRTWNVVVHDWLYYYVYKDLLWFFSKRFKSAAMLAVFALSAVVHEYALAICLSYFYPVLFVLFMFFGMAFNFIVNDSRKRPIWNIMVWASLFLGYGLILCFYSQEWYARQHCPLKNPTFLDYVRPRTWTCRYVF

Macrophage = assay: Inhibition of cholesterol ester synthesis in mouse macrophages assessed as lipid droplet accumulation; type: functional, cell-based

SMILES	inhibition [1] [%]	IC50 (Macrophage) [nM]
CCCC[C@H](C)[C@@H]1CC(=O)N[C@@H](C(c2ccccc2)c2ccccc2)C(=O)N[C@@H](C)C(=O)N[C@H](Cc2ccccc2)C(=O)O1	71	80
CCCC[C@H](C)[C@@H]1CC(=O)N[C@@H](C(c2ccccc2)c2ccccc2)C(=O)N[C@H](C)C(=O)N[C@H](CC(C)C)C(=O)O1	93	70
CCCC[C@H](C)[C@@H]1CC(=O)N[C@@H](C(c2ccccc2)c2ccccc2)C(=O)N[C@@H](CC(N)=O)C(=O)N[C@H](CC(C)C)C(=O)O1	98	2000
CCCC[C@H](C)[C@@H]1CC(=O)N[C@@H](Cc2ccccc2)C(=O)N[C@@H](CO)C(=O)N[C@H](Cc2ccccc2)C(=O)O1	79	9300
CCCC[C@H](C)[C@@H]1CC(=O)N[C@@H](C(c2ccccc2)c2ccccc2)C(=O)N[C@@H](CO)C(=O)N[C@H](Cc2ccccc2)C(=O)O1	96	160
CCCC[C@H](C)[C@@H]1CC(=O)N[C@@H](C(c2ccccc2)c2ccccc2)C(=O)N[C@H](C)C(=O)N[C@H](Cc2ccccc2)C(=O)O1	75	240
CCCC[C@H](C)[C@@H]1CC(=O)N[C@@H](C(c2ccccc2)c2ccccc2)C(=O)N[C@@H](CC(N)=O)C(=O)N[C@H](Cc2ccccc2)C(=O)O1	97	900
CCCC[C@H](C)[C@@H]1CC(=O)N[C@H](Cc2ccccc2)C(=O)N[C@@H](C)C(=O)N[C@H](Cc2ccccc2)C(=O)O1	47	> 20000
CCCC[C@H](C)[C@@H]1CC(=O)N[C@@H](Cc2ccccc2)C(=O)N[C@@H](C)C(=O)N[C@H](Cc2ccccc2)C(=O)O1	76	7500
CCCC[C@H](C)[C@@H]1CC(=O)N[C@@H](C(c2ccccc2)c2ccccc2)C(=O)N[C@H](C)C(=O)N[C@H]([C@@H](C)CC)C(=O)O1	91	20
CCCC[C@H](C)[C@@H]1CC(=O)N[C@H](Cc2ccccc2)C(=O)N[C@H](C)C(=O)N[C@H](Cc2ccccc2)C(=O)O1	60	300
CCCC[C@H](C)[C@@H]1CC(=O)N[C@@H](Cc2ccccc2)C(=O)N[C@@H](CC(N)=O)C(=O)N[C@H](Cc2ccccc2)C(=O)O1	11	> 20000
CCCC[C@H](C)[C@@H]1CC(=O)N[C@H](Cc2ccccc2)C(=O)N[C@@H](CO)C(=O)N[C@H](Cc2ccccc2)C(=O)O1	95	110
CCCC[C@H](C)[C@@H]1CC(=O)N[C@H](Cc2ccccc2)C(=O)N[C@@H](CC(N)=O)C(=O)N[C@H](C[C@@H](C)CC)C(=O)O1		> 20000
CCCC[C@H](C)[C@@H]1CC(=O)N[C@@H](C(c2ccccc2)c2ccccc2)C(=O)N[C@@H](C)C(=O)N[C@H](CC(C)C)C(=O)O1	83	80
CCCC[C@H](C)[C@@H]1CC(=O)N[C@@H](C(c2ccccc2)c2ccccc2)C(=O)N[C@@H](C)C(=O)N[C@H]([C@@H](C)CC)C(=O)O1	95	40
CCCC[C@H](C)[C@@H]1CC(=O)N[C@@H](C(c2ccccc2)c2ccccc2)C(=O)N[C@H](C)C(=O)N[C@H]([C@H](C)CC)C(=O)O1	97	20
CCCC[C@H](C)[C@@H]1CC(=O)N[C@@H](C(c2ccccc2)c2ccccc2)C(=O)N[C@@H](C)C(=O)N[C@H]([C@H](C)CC)C(=O)O1	88	20
CCCC[C@H](C)[C@@H]1CC(=O)N[C@@H](C(c2ccccc2)c2ccccc2)C(=O)N[C@@H](CO)C(=O)N[C@H](CC(C)C)C(=O)O1	70	> 20000
CCCC[C@H](C)[C@@H]1CC(=O)N[C@H](Cc2ccccc2)C(=O)N[C@@H](CC(N)=O)C(=O)N[C@H](Cc2ccccc2)C(=O)O1	8	> 20000

More lines, now with the values ahead:

inhibition [1] [%]	IC50 (Macrophage) [nM]	SMILES
4	> 20000	CCCC[C@H](C)[C@@H]1CC(=O)N[C@H](Cc2ccccc2)C(=O)N[C@@H](CC(N)=O)C(=O)N[C@H](CC(C)C)C(=O)O1
96	650	CCCC[C@H](C)[C@@H]1CC(=O)N[C@@H](Cc2ccccc2)C(=O)N[C@H](C)C(=O)N[C@H]([C@H](C)CC)C(=O)O1
20	> 20000	CCCC[C@H](C)[C@@H]1CC(=O)N[C@H](Cc2ccccc2)C(=O)N[C@@H](C)C(=O)N[C@H]([C@@H](C)CC)C(=O)O1
87	> 20000	CCCC[C@H](C)[C@@H]1CC(=O)N[C@H](Cc2ccccc2)C(=O)N[C@@H](C)C(=O)N[C@H](CC(C)C)C(=O)O1
99	900	CCCC[C@H](C)[C@@H]1CC(=O)N[C@H](Cc2ccccc2)C(=O)N[C@H](C)C(=O)N[C@H]([C@@H](C)CC)C(=O)O1
91	400	CCCC[C@H](C)[C@@H]1CC(=O)N[C@@H](Cc2ccccc2)C(=O)N[C@@H](C)C(=O)N[C@H]([C@@H](C)CC)C(=O)O1 [BEAUVERIOLIDE III]
94	800	CCCC[C@H](C)[C@@H]1CC(=O)N[C@@H](Cc2ccccc2)C(=O)N[C@H](C)C(=O)N[C@H]([C@@H](C)CC)C(=O)O1
95	600	CCCC[C@H](C)[C@@H]1CC(=O)N[C@@H](Cc2ccccc2)C(=O)N[C@@H](C)C(=O)N[C@H](CC(C)C)C(=O)O1 [BEAUVERIOLIDE I]
70	> 20000	CCCC[C@H](C)[C@@H]1CC(=O)N[C@H](Cc2ccccc2)C(=O)N[C@@H](C)C(=O)N[C@H]([C@H](C)CC)C(=O)O1
91	2500	CCCC[C@H](C)[C@@H]1CC(=O)N[C@H](Cc2ccccc2)C(=O)N[C@H](C)C(=O)N[C@H]([C@H](C)CC)C(=O)O1
98	480	CCCC[C@H](C)[C@@H]1CC(=O)N[C@@H](Cc2ccccc2)C(=O)N[C@H](C)C(=O)N[C@H](CC(C)C)C(=O)O1
93	12300	CCCC[C@H](C)[C@@H]1CC(=O)N[C@@H](Cc2ccccc2)C(=O)N[C@@H](CO)C(=O)N[C@H](CC(C)C)C(=O)O1
40	> 20000	CCCC[C@H](C)[C@@H]1CC(=O)N[C@H](Cc2ccccc2)C(=O)N[C@@H](CO)C(=O)N[C@H](CC(C)C)C(=O)O1
96	1000	CCCC[C@H](C)[C@@H]1CC(=O)N[C@H](Cc2ccccc2)C(=O)N[C@H](C)C(=O)N[C@H](CC(C)C)C(=O)O1
94	10000	CCCC[C@H](C)[C@@H]1CC(=O)N[C@@H](Cc2ccccc2)C(=O)N[C@H](C)C(=O)N[C@H](Cc2ccccc2)C(=O)O1
80	1700	CCCC[C@H](C)[C@@H]1CC(=O)N[C@@H](Cc2ccccc2)C(=O)N[C@@H](C)C(=O)N[C@H]([C@H](C)CC)C(=O)O1
43	> 20000	CCCC[C@H](C)[C@@H]1CC(=O)N[C@@H](Cc2ccccc2)C(=O)N[C@@H](CC(N)=O)C(=O)N[C@H](CC(C)C)C(=O)O1
